Assay results from patent publication US10029986B2, “Alkynyl pyridine-substituted amide compound and pesticide” (NISSAN CHEMICAL INDUSTRIES, LTD., priority 2014, dated 2018).

How the values were obtained:
[1] = test system: Erysiphe polygoni (synonym: Erysiphe betae); assay: Test on the preventive effect against cucumber powdery mildew; type: in vivo; details: 216 h, test solution A 500 ppm, 5 ml per pot sprayed, cucumber cotyledon stage, 9 days after inoculation
Method: Compounds of the present invention were dissolved in a solvent for emulsion (a mixture of Sorpol (registered trademark) 3005XL (manufactured by Toho Chemical Industry Co., Ltd.): N-methylpyrrolidone: Solvesso (registered trademark) 200 (manufactured by ExxonMobil Chemical) in a ratio of 1:5:2) to prepare 20 wt % emulsifiable concentrates. Then, distilled water was added to dilute the emulsifiable concentrates to the prescribed concentration (500 ppm), and the obtained solutions were used in the following the Test Examples 1 to 8. Cucumber (varieties: Sagami Hanjiro) was seeded in 90 cm^3 plastic pot, and at the cotyledon stage, 5 ml per pot of test solution A of the compounds of the present invention was sprayed. After drying in air, the pot was placed in an air-conditioned greenhouse (20° C.), and a suspension of conidium of Erysiphe polygoni (synonym: Erysiphe betae) was sprayed. After the pot were replaced at the same temperature for 9 days, the proportion of the formed lesion in the inoculated leaves were counted to calculate the control value in accordance with the following formula. The test was carried out in duplicate. Control value=[1−(lesion area ratio in treated plot/lesion are a ratio in non-treated plot)]×100

Botrytis cinerea [2] = assay: Test on the preventive effect against cucumber gray mold (spore inoculation); type: in vivo; details: 72 h, test solution A 500 ppm, 5 ml per pot, cucumber cut leaves, conidium inoculation, 3 days at 20° C.
Method: Compounds of the present invention were dissolved in a solvent for emulsion (a mixture of Sorpol (registered trademark) 3005XL (manufactured by Toho Chemical Industry Co., Ltd.): N-methylpyrrolidone: Solvesso (registered trademark) 200 (manufactured by ExxonMobil Chemical) in a ratio of 1:5:2) to prepare 20 wt % emulsifiable concentrates. Then, distilled water was added to dilute the emulsifiable concentrates to the prescribed concentration (500 ppm), and the obtained solutions were used in the following the Test Examples 1 to 8. Cucumber (varieties: Sagami Hanjiro) was seeded in 90 cm^3 plastic pot, and at the cotyledon stage, 5 ml per pot of test solution A of the compounds of the present invention was applied. After drying in air, the treated leaves were cut and transferred in plastic containers. 30 μl of a mixture of a suspension of conidium of Botrytis cinerea and a dissolved PDA medium in a ratio of 1:1 was dropped on each treated leaf and inoculated. After the inoculation, the plastic containers were placed in 20° C. with humid conditions for 3 days, and the proportion of the formed lesion in the inoculated leaves were counted to calculate the control value in accordance with the same formula as in the Test Example 1. The test was carried out in duplicate.

[3] = test system: Colletotrichum lagenarium (Synonym: Colletotrichum orbiculare); assay: Test on the preventive effect against cucumber anthracnose; type: in vivo; details: 168 h, test solution A 500 ppm, 5 ml per pot sprayed, 2 days inoculation chamber then 7 days at 23° C.
Method: Compounds of the present invention were dissolved in a solvent for emulsion (a mixture of Sorpol (registered trademark) 3005XL (manufactured by Toho Chemical Industry Co., Ltd.): N-methylpyrrolidone: Solvesso (registered trademark) 200 (manufactured by ExxonMobil Chemical) in a ratio of 1:5:2) to prepare 20 wt % emulsifiable concentrates. Then, distilled water was added to dilute the emulsifiable concentrates to the prescribed concentration (500 ppm), and the obtained solutions were used in the following the Test Examples 1 to 8. Cucumber (varieties: Sagami Hanjiro) was seeded in 90 cm^3 plastic pot, and at the cotyledon stage, 5 ml per pot of test solution A of the compounds of the present invention was sprayed. One day later, a suspension of conidium of Colletotrichum lagenarium (Synonym: Colletotrichum orbiculare) was sprayed, and the pot was left for 2 days in the inoculation chamber at 25° C. under humidity of 100% RH. Thereafter, the pot was placed in an air-conditioned greenhouse (23° C.) and left at the same temperature for 7 days. Thereafter, the proportion of the formed lesion in the inoculated leaves were measured to calculate the control value in accordance with the same formula as in Test Example 1. The test was carried out in duplicate.

[4] = test system: Phaeosphaeria nodorum (Synonym: Septoria nodorum); assay: Test on the preventive effect against wheat glume blotch; type: in vivo; details: Parastagonospora nodorum, 144 h; test solution A 500 ppm, 5 ml per pot, wheat 1.3-leaf stage, 2 days inoculation chamber then 6 days at 20° C.
Method: (§1) Compounds of the present invention were dissolved in a solvent for emulsion (a mixture of Sorpol (registered trademark) 3005XL (manufactured by Toho Chemical Industry Co., Ltd.): N-methylpyrrolidone: Solvesso (registered trademark) 200 (manufactured by ExxonMobil Chemical) in a ratio of 1:5:2) to prepare 20 wt % emulsifiable concentrates. Then, distilled water was added to dilute the emulsifiable concentrates to the prescribed concentration (500 ppm), and the obtained solutions were used in the following the Test Examples 1 to 8. Wheat (varieties: Haruyutaka) was seeded in 90 cm^3 plastic pot, and at 1.3-leaf stage, 5 ml per pot of test solution A of the compounds of the present invention was applied. One day after treatment, a suspension of conidium of Phaeosphaeria nodorum (Synonym: Septoria nodorum) was sprayed to the wheat, and the pot was left in the inoculation chamber at 20° C. under humidity of 100% RH for 2 days. Then, the pot was placed in an air-conditioned greenhouse (20° C.) for 6 days. The proportion of the formed lesion in the inoculated leaves were measured to calculate the control value in accordance with the same formula as in the Test Example 1. The test was carried out in duplicate.

[5] = test system: Colletotrichum lagenarium (Synonym: Colletotrichum orbiculare); assay: Test on the preventive effect against cucumber anthracnose; type: in vivo; details: 168 h, 100 ppm solution (symbol *), 5 ml per pot sprayed, 2 days inoculation chamber then 7 days at 23° C.
[6] = test system: Blumeria graminis f. sp. tritici; assay: Test on the preventive effect against wheat powdery mildew; type: in vivo; details: 168 h, test solution A 500 ppm, 5 ml per pot, wheat 1.3-leaf stage, 7 days after inoculation
Method: Compounds of the present invention were dissolved in a solvent for emulsion (a mixture of Sorpol (registered trademark) 3005XL (manufactured by Toho Chemical Industry Co., Ltd.): N-methylpyrrolidone: Solvesso (registered trademark) 200 (manufactured by ExxonMobil Chemical) in a ratio of 1:5:2) to prepare 20 wt % emulsifiable concentrates. Then, distilled water was added to dilute the emulsifiable concentrates to the prescribed concentration (500 ppm), and the obtained solutions were used in the following the Test Examples 1 to 8. Wheat (varieties: Norin 61) was seeded in 90 cm^3 plastic pot, and at the 1.3-leaf stage, 5 ml per pot of test solution A of the compounds of the present invention were applied. One day after treatment, the pot was placed in an air-conditioned greenhouse (20° C.), and conidium of Blumeria graminis f. sp. tritici was inoculated to the wheat. 7 days after, the proportion of the formed lesion in the inoculated leaves were measured to calculate the control value in accordance with the same formula as in the Test Example 1. The test was carried out in duplicate.

Botrytis cinerea [7] = assay: Test on the preventive effect against cucumber gray mold (mycelium inoculation); type: in vivo; details: 48 h, test solution A 500 ppm, 5 ml per pot, cucumber cotyledon, agar block inoculation, 2 days at 20° C.
Method: Compounds of the present invention were dissolved in a solvent for emulsion (a mixture of Sorpol (registered trademark) 3005XL (manufactured by Toho Chemical Industry Co., Ltd.): N-methylpyrrolidone: Solvesso (registered trademark) 200 (manufactured by ExxonMobil Chemical) in a ratio of 1:5:2) to prepare 20 wt % emulsifiable concentrates. Then, distilled water was added to dilute the emulsifiable concentrates to the prescribed concentration (500 ppm), and the obtained solutions were used in the following the Test Examples 1 to 8. Cucumber (varieties: Sagami Hanjiro) was seeded in 90 cm^3 plastic pot, and at the cotyledon stage, 5 ml per pot of test solution A of the compounds of the present invention was applied. On the next day, the pot was transferred in a plastic container, and an agar blocks (diameter: 5 mm) containing Botrytis cinerea which was preliminarily cultivated in a PDA medium was inoculated on the cotyledon of the cucumber treated with the solution. After the inoculation, the plastic container was covered with a plastic sheet, then placed at 20° C. and humidified for 2 days. Thus the proportion of the formed lesion in the inoculated leaves were measured to calculate the control value in accordance with the same formula as in the Test Example 1. The test was carried out in duplicate.

Sclerotinia sclerotiorum = assay: Test on the preventive effect against cucumber stem rot; type: in vivo; details: 48 h, test solution A 500 ppm, 5 ml per pot, agar block inoculation, 2 days at 20° C.
Method: Compounds of the present invention were dissolved in a solvent for emulsion (a mixture of Sorpol (registered trademark) 3005XL (manufactured by Toho Chemical Industry Co., Ltd.): N-methylpyrrolidone: Solvesso (registered trademark) 200 (manufactured by ExxonMobil Chemical) in a ratio of 1:5:2) to prepare 20 wt % emulsifiable concentrates. Then, distilled water was added to dilute the emulsifiable concentrates to the prescribed concentration (500 ppm), and the obtained solutions were used in the following the Test Examples 1 to 8. Cucumber (varieties: Sagami Hanjiro) was seeded in 90 cm^3 plastic pot, and at the cotyledon stage, 5 ml per pot of test solution A of the compounds of the present invention was applied. After drying in air, the pot was transferred in a plastic container, and an agar blocks (diameter: 5 mm) containing Sclerotinia sclerotiorum which was preliminarily cultivated in a PDA medium was inoculated to the seed leaves of the cucumber treated with the solution. After the inoculation, the plastic container was covered with a plastic sheet, and placed at 20° C. and humidified for 2 days, thus the proportion of the formed lesion in the inoculated leaves were measured to calculate the control value in accordance with the same formula as in the Test Example 1. The test was carried out in duplicate.

Puccinia recondita = assay: Test on the preventive effect against wheat leaf rust; type: in vivo; details: 216 h, test solution A 500 ppm, 5 ml per pot, wheat 1.3-leaf stage, 1 day inoculation chamber then 8 days at 20° C.
Method: as §1, with “Norin 61)” for “Haruyutaka)”, “spores” for “conidium”, “Puccinia recondita” for “Phaeosphaeria nodorum (Synonym: Septoria nodorum)”, “1 day. Thereafter,” for “2 days. Then,”, “8” for “6”, “counted” for “measured”

Asperaillus niger = assay: Test on the antifungal activity against Asperaillus niger; type: cell-based; details: 48 h; test solution B 100 ppm, 10 μl per well, 96 well plate, 25° C. dark, 2 days after treatment; read-out: efficacy (flora area ratio relative to non-treated well)
Method: Compounds of the present invention were dissolved in dimethyl sulfoxide to prepare 1 wt % solutions. Then, distilled water was added to dilute the solutions to the prescribed concentration (100 ppm), and the obtained solutions were used in the following the Test Examples 9 to 12. 60 μl of a potato dextrose 1% agar medium was added to each well of a 96 well plate, and 30 μl of sterilized water containing spores of Asperaillus niger (10 spores/3 μl) was added to each well. Further, 10 μl per well of test solution B of the compounds of the present invention was added, and the plate was left at rest at 25° C. under dark conditions. 2 days after treatment, the flora area ratio (%) was determined to calculate the efficacy (%) relative to the non-treated well in accordance with the following formula. Efficacy (%)=[1−(flora area ratio in treated plot/flora area ratio in non-treated well)]×100

| Structure (SMILES) | melting point [°C] | pest or weed control at 500 µg/mL (Botrytis cinerea [2]) [%] | pest or weed control at 500 µg/mL [4] [%] | also measured |
| --- | --- | --- | --- | --- |
| CC(NC(=O)c1cccnc1C(F)F)C(SCC(F)(F)F)c1ncc(C#CC2CC2)cc1Cl (stereo not shown) [3-033a] | 72 to 74 | ≥ 70 | ≥ 70 | pest or weed control at 500 µg/mL [1]: ≥ 70%; pest or weed control at 500 µg/mL [3]: ≥ 70% |
| CC(Cc1ncc(C#CCO)cc1Cl)NC(=O)c1cn(C)nc1C(F)F (stereo not shown) [8-025] |  |  |  | pest or weed control at 100 ppm [5]: ≥ 70% |
| COC(c1ncc(C#CC2CC2)cc1Cl)C(C)NC(=O)c1sc(C)nc1C(F)F (stereo not shown) [9-006b] |  |  |  | pest or weed control at 500 µg/mL (Puccinia recondita): ≥ 70% |
| N#CC(C#N)(CNC(=O)c1ccccc1C(F)(F)F)c1ncc(C#CC2CC2)cc1Cl [1-023, N-[2-[3-chloro-5-(cyclopropylethynyl)pyridin-2-yl]-2,2-dicyanoethyl]-2-(trifluoromethyl)benzamide] | 42 to 44 |  | ≥ 70 |  |

The next lines start with results.

| melting point [°C] | Structure (SMILES) | pest or weed control at 500 µg/mL (Botrytis cinerea [2]) [%] | pest or weed control at 500 µg/mL [4] [%] | also measured |
| --- | --- | --- | --- | --- |
| 87 to 88 | CCOC(=O)C(CNC(=O)c1cn(C)nc1C(F)F)(C(=O)OCC)c1ncc(C#CC2CC2)cc1Cl [8-023, 2-[3-chloro-5-(cyclopropylethynyl)pyridin-2-yl]-2-[(3-difluoromethyl-1-methyl-1H-pyrazole-4-carboxamide)methyl]malonic acid diethyl ester] | ≥ 70 | ≥ 70 | pest or weed control at 500 µg/mL [1]: ≥ 70%; pest or weed control at 500 µg/mL [6]: ≥ 70% |
| 176 to 178 | Cn1cc(C(=O)NC2CC2c2ncc(C#CC3CC3)cc2Cl)c(C(F)F)n1 (stereo not shown) [8-033, N-[2-[3-chloro-5-(cyclopropylethynyl)pyridin-2-yl]cyclopropyl]-3-difluoromethyl-1-methyl-1H-pyrazole-4-carboxamide] | ≥ 70 |  | pest or weed control at 500 µg/mL (Botrytis cinerea [7]): ≥ 70%; pest or weed control at 500 µg/mL (Sclerotinia sclerotiorum): ≥ 70%; pest or weed control at 500 µg/mL (Puccinia recondita): ≥ 70%; inhibition of growth at 100 µg/mL (Asperaillus niger): ≥ 50% |
| 110 to 112 | Cn1cc(C(=O)N(C(=O)OC(C)(C)C)C2CC2c2ncc(C#CC3CC3)cc2Cl)c(C(F)F)n1 (stereo not shown) [12-002, tert-butyl N-[2-[3-chloro-5-(cyclopropylethynyl)pyridin-2-yl]cyclopropyl]-N-[3-difluoromethyl-1-methyl-1H-pyrazole-4-carbonyl]carbamate] | ≥ 70 |  |  |
